These results are taken from patent publication US20230372327A1, “PHARMACEUTICAL COMPOSITION BASED ON […]/OR ITS SALTS FOR NASAL ADMINISTRATION” (Pharmbiotest Poland Sp. z o. o., priority 2020, published 2023).

Where a name gives a salt, the structure may show the parent alone. Read-outs that look alike come from different tables or passages of the source.

In general, bioavailability refers to dose-corrected exposure relative to a reference, in per cent. Read a low bioavailability as little systemic uptake.

The nature of data set [1]: clinical. The following applies: male, human, plasma, other: intranasal (nasal spray), 10 mg.
Description: The total number of healthy adult male subjects enrolled was twelve. Throughout the study, the conditions of their hospital stay, a dietary pattern, a water consumption regimen, a physical activity regimen for the volunteers were standardized. The clinical step of study consisted of a screening, two study periods, a washout period, and the final examination. The total duration of study, starting from the screening through the completion of study, was approximately three weeks with a seven-day wash-out period between medication administrations. Each study period was preceded by inpatient hospitalization in the evening of the previous day. […] In each study period the following was done: the intake of the medications under study whose prescription was determined by a simple randomization method; blood sampling for the determination of active pharmaceutical ingredient concentration; the measurement of vital data such as blood pressure (BP), heart rate; and questionnaire survey of volunteers.
Blood was sampled as follows: 0 hours, 15 min., 30 min., 45 min., 1 hour, 1 hour 30 min., 2 hours, 2 hours 30 min., 3 hours, 4 hours, 6 hours, 8 hours, 12 hours, and 24 hours post-dosing. […] The actual sampling time was recorded. […]
AUC(0-∞) is AUC0-t plus the extrapolated AUC from time t to infinity [ng×h/mL]. The extrapolation is calculated from the last measured concentration (Ct): AUC(0-∞)=AUC(0-t)+Ct/Kel. […]
The conditions of data set [2]: 12 volunteers.
Description: The total number of healthy adult male subjects enrolled was twelve. Throughout the study, the conditions of their hospital stay, a dietary pattern, a water consumption regimen, a physical activity regimen for the volunteers were standardized. The clinical step of study consisted of a screening, two study periods, a washout period, and the final examination. The total duration of study, starting from the screening through the completion of study, was approximately three weeks with a seven-day wash-out period between medication administrations. Each study period was preceded by inpatient hospitalization in the evening of the previous day. The medications were dosed on Day 1 of each study period starting from 08:00 a.m. The subjects stayed in the centre for 24 hours after the administration of the medication under study in each study period. In each study period the following was done: the intake of the medications under study whose prescription was determined by a simple randomization method; blood sampling for the determination of active pharmaceutical ingredient concentration; the measurement of vital data such as blood pressure (BP), heart rate; and questionnaire survey of volunteers. […]
For data set [3] the following is noted: printed: following nasal use (administration); prior-art compositions, strong first-pass effect; cited from earlier work.

Take `Oc1ccc2c3c1O[C@H]1[C@@H](O)CC[C@@]4(O)[C@@H](C2)N(CC2CCC2)CC[C@]314` [nalbuphine, (5α.6α)-17-(cyclobutylmethyl)-4.5epoxy-morphinan-3.6.14-triol hydrochloride]: the bioavailability in data set [1] is 50%. In addition, the figures for the adverse reactions recorded in data set [2] (after intramuscular administration of 10 mg of nalbuphine) and in data set [2] (after intravenous administration of 10 mg of nalbuphine) were 24 cases and 25 cases, respectively. The bioavailability of nalbuphine in data set [3] is 16.4 to 17.7%.
